{"source": "patent US5627152A", "about": "“Method for increasing bodyweight” (Telluride Pharmaceutical Corporation, priority 1995, dated 1997)", "key": {"[1]": {"test": "Oral glutathione capsules in healthy subjects: bodyweight and percent bodyfat by the caliper method", "assay_type": "in vivo, human", "settings": "for percentage bodyfat at end of treatment: caliper method", "experimental": "A healthy subject who wished to gain more weight in the form of lean muscle tissue, was treated for five weeks with one capsule containing 250 mg glutathione four times daily resulting in a total daily dosage of 1000 mg glutathione.\nA healthy subject who wished to add bodyweight in the form of lean muscle, was treated for seven weeks with one capsule containing 500 mg of glutathione, four times per day. The totally daily dose was 2,000 mg of glutathione.\nA […] healthy male subject who wished to add bodyweight in the form of lean muscle, was treated for seven weeks with two capsule of 500 mg of glutathione, three times per day. The totally daily dose was 3,000 mg of glutathione.\nA healthy subject who wished to add bodyweight in the form of lean muscle was treated for six weeks with two capsules containing 500 mg of glutathione, twice daily. The totally daily dose was 2,000 mg of glutathione."}, "[2]": {"system": "guinea pigs", "settings": "high doses; cited from earlier work"}}, "data": [{"smiles": "N[C@@H](CCC(=O)N[C@@H](CS)C(=O)NCC(=O)O)C(=O)O", "note": "[glutathione, -L-glutamyl-cysteinylglycine]", "values": [{"measurement": "percentage bodyfat at end of treatment", "setting": "[1]; Example 1: 1000 mg/day, five weeks, start 20.1%", "value": 18.6, "unit": "%"}, {"measurement": "fat at end of treatment", "setting": "[1]; Example 1: 1000 mg/day, five weeks, start 25 pounds", "value": 24, "unit": "pounds"}, {"measurement": "muscle, bone and connective tissue at end of treatment", "setting": "[1]; Example 1: 1000 mg/day, five weeks, start 100 pounds", "value": 105, "unit": "pounds"}, {"measurement": "percent change in lean bodyweight (gain)", "setting": "[1]; Example 1: 1000 mg/day, five weeks, without a change in diet or exercise regimen", "value": 5, "unit": "%"}, {"measurement": "bodyweight at end of treatment", "setting": "[1]; Example 1: healthy person, 250 mg capsule four times daily (1000 mg/day), five weeks, start 125 pounds", "value": 129, "unit": "pounds"}, {"measurement": "percentage bodyfat at end of treatment", "setting": "[1]; Example 2: 2,000 mg/day, seven weeks, start 24.9%", "value": 22.3, "unit": "%"}, {"measurement": "fat at end of treatment", "setting": "[1]; Example 2: 2,000 mg/day, seven weeks, start 55 pounds", "value": 55, "unit": "pounds"}, {"measurement": "muscle, bone and connective tissue at end of treatment", "setting": "[1]; Example 2: 2,000 mg/day, seven weeks, start 165 pounds", "value": 193, "unit": "pounds"}, {"measurement": "percent change in lean body weight", "setting": "[1]; Example 2: 2,000 mg/day, seven weeks, without a change in diet or exercise regimen", "value": 17, "unit": "%"}, {"measurement": "bodyweight at end of treatment", "setting": "[1]; Example 2: healthy person, 500 mg capsule four times per day (2,000 mg/day), seven weeks, start 220 pounds", "value": 248, "unit": "pounds"}, {"measurement": "percentage bodyfat at end of treatment", "setting": "[1]; Example 3: 3,000 mg/day, seven weeks, start 18.5%", "value": 15.1, "unit": "%"}, {"measurement": "percent change in lean body weight", "setting": "[1]; Example 3: 3,000 mg/day, seven weeks, no change in diet or exercise regimen", "value": 24.2, "unit": "%"}, {"measurement": "fat at end of treatment", "setting": "[1]; Example 3: 3,000 mg/day, seven weeks, start 38 pounds", "value": 36, "unit": "pounds"}, {"measurement": "muscle, bone and connective tissue at end of treatment", "setting": "[1]; Example 3: 3,000 mg/day, seven weeks, start 165 pounds", "value": 205, "unit": "pounds"}, {"measurement": "bodyweight at end of treatment", "setting": "[1]; Example 3: healthy person, two 500 mg capsules three times per day (3,000 mg/day), seven weeks, start 203 pounds", "value": 241, "unit": "pounds"}, {"measurement": "percentage bodyfat at end of treatment", "setting": "[1]; Example 4: 2,000 mg/day, six weeks, start 17.2%", "value": 14.9, "unit": "%"}, {"measurement": "fat at end of treatment", "setting": "[1]; Example 4: 2,000 mg/day, six weeks, start 36 pounds", "value": 36, "unit": "pounds"}, {"measurement": "muscle, bone and connective tissue at end of treatment", "setting": "[1]; Example 4: 2,000 mg/day, six weeks, start 176 pounds", "value": 203, "unit": "pounds"}, {"measurement": "percent change in lean body weight", "setting": "[1]; Example 4: 2,000 mg/day, six weeks, with a change in diet or exercise regimen (so in the source)", "value": 15.3, "unit": "%"}, {"measurement": "bodyweight at end of treatment", "setting": "[1]; Example 4: healthy person, two 500 mg capsules twice daily (2,000 mg/day), six weeks, start 212 pounds", "value": 239, "unit": "pounds"}, {"measurement": "effect on bodyweight (cachexia)", "setting": "[2]", "value": "promote cachexia"}]}]}
